Assay results taken from the NIST ThermoML archive (doi:10.1021/acs.jced.7b00429).

Assay: xn = mol fraction of the nth substance listed
Details: 100 kPa, Liquid; for viscosity: Falling or rolling sphere viscometry; for speed of sound: Frequency=3 MHz, Single path-length method; for mass density: Vibrating tube method

CCn1cc[n+](C)c1.O=S(=O)([O-])C(F)(F)F [1-ethyl-3-methylimidazolium trifluoromethanesulfonate] + CC#N
Details	mass density [kg/m3]	speed of sound [m/s]	viscosity [mPa·s]
298.15 K, x1 = 0.1026	964.8	1309.2	0.85
298.15 K, x1 = 0.2053	1080.98	1337.4	1.88
298.15 K, x1 = 0.3044	1158.48	1360.9	2.99
298.15 K, x1 = 0.3948	1210.19	1377.9	4.51
298.15 K, x1 = 0.498	1256.19	1394.4	7.44
298.15 K, x1 = 0.595	1289.82	1408	10.9
298.15 K, x1 = 0.6936	1317.8	1418.6	15.92
298.15 K, x1 = 0.801	1342.54	1427.1	24.05
298.15 K, x1 = 0.9005	1362.36	1432.6	33.72
298.15 K, x1 = 1	1379.91	1436	45.67
303.15 K, x1 = 0.1026	959.72	1292	0.8
303.15 K, x1 = 0.2053	1076.24	1321.9	1.82
303.15 K, x1 = 0.3044	1153.77	1346.7	2.74
303.15 K, x1 = 0.3948	1205.75	1364.5	4.13
303.15 K, x1 = 0.498	1251.68	1381.5	6.64
303.15 K, x1 = 0.595	1285.38	1395.5	9.46
303.15 K, x1 = 0.6936	1313.46	1406.6	13.8
303.15 K, x1 = 0.801	1338.3	1415.2	20.32
303.15 K, x1 = 0.9005	1358.19	1421.3	27.94
303.15 K, x1 = 1	1375.71	1425.4	38.31
308.15 K, x1 = 0.1026	954.64	1274.9	0.75
308.15 K, x1 = 0.2053	1071.2	1306.5	1.65
308.15 K, x1 = 0.3044	1149.07	1332.5	2.52
308.15 K, x1 = 0.3948	1200.93	1351.3	3.76
308.15 K, x1 = 0.498	1247.19	1368.7	5.95
308.15 K, x1 = 0.595	1280.97	1383.2	8.41
308.15 K, x1 = 0.6936	1309.13	1394.7	12.08
308.15 K, x1 = 0.801	1334.18	1403.4	17.54
308.15 K, x1 = 0.9005	1354.05	1409.7	23.87
308.15 K, x1 = 1	1371.51	1414.3	32.38
313.15 K, x1 = 0.1026	949.54	1257.9	0.72
313.15 K, x1 = 0.2053	1066.32	1291.1	1.54
313.15 K, x1 = 0.3044	1144.37	1318.3	2.34
313.15 K, x1 = 0.3948	1196.39	1338.2	3.46
313.15 K, x1 = 0.498	1242.71	1356	5.37
313.15 K, x1 = 0.595	1276.68	1371.1	7.51
313.15 K, x1 = 0.6936	1304.82	1382.9	10.66
313.15 K, x1 = 0.801	1330.05	1391.6	15.27
313.15 K, x1 = 0.9005	1349.89	1398.1	20.58
313.15 K, x1 = 1	1367.36	1403	27.68
318.15 K, x1 = 0.1026	944.58	1241	0.68
318.15 K, x1 = 0.2053	1061.52	1275.8	1.42
318.15 K, x1 = 0.3044	1139.57	1304.3	2.16
318.15 K, x1 = 0.3948	1191.77	1325.1	3.17
318.15 K, x1 = 0.498	1238.2	1343.4	4.87
318.15 K, x1 = 0.595	1272.32	1359	6.75
318.15 K, x1 = 0.6936	1300.45	1371.3	9.46
318.15 K, x1 = 0.801	1325.89	1380.2	13.39
318.15 K, x1 = 0.9005	1345.74	1387.1	17.89
318.15 K, x1 = 1	1363.21	1392.7	23.86
323.15 K, x1 = 0.1026	939.47	1224.1	0.65
323.15 K, x1 = 0.2053	1056.45	1260.7	1.38
323.15 K, x1 = 0.3044	1134.77	1290.5	2.01
323.15 K, x1 = 0.3948	1187.31	1312.2	2.91
323.15 K, x1 = 0.498	1233.78	1330.9	4.43
323.15 K, x1 = 0.595	1267.96	1347.1	5.96
323.15 K, x1 = 0.6936	1296.17	1359.7	8.27
323.15 K, x1 = 0.801	1321.8	1368.6	11.66
323.15 K, x1 = 0.9005	1341.58	1375.7	15.49
323.15 K, x1 = 1	1359.07	1381.7	20.75
